# Reference: publication PMC9516332 (Frontiers in Oncology, 2022)
# Where two headings read alike, the source gives them in different places.
# Experiments:
# [1] = biological target: panel of 255 wild-type kinases (Homo sapiens, UniProt Q92918); test: Kinase panel profiling at 1 µmol/L (MSA or IMAP), percentage inhibition; assay type: biochemical; conditions: read-out: %-inhibition at 1 µmol/L, HPK1
# [2] = biological target: panel of 255 wild-type kinases (Homo sapiens, UniProt P22612); conditions: kinase PKACγ, 1 µmol/L single concentration, cited from earlier work
# [3] = biological target: panel of 255 wild-type kinases (Homo sapiens, UniProt P29597); conditions: kinase TYK2, 1 µmol/L single concentration, cited from earlier work
# [4] = biological target: panel of 255 wild-type kinases (Homo sapiens, UniProt Q14289); conditions: kinase PYK2, 1 µmol/L single concentration, cited from earlier work
# [5] = biological target: panel of 255 wild-type kinases (Homo sapiens, UniProt P08631); conditions: kinase HCK, 1 µmol/L single concentration, cited from earlier work
# [6] = biological target: panel of 255 wild-type kinases (Homo sapiens, UniProt Q06187); conditions: BTK kinase assay, 1 µmol/L single concentration, cited from earlier work
# [7] = biological target: T1, panel of 255 wild-type kinases (Homo sapiens, UniProt P51955); conditions: NEK2, 1 µmol/L single concentration, cited from earlier work
# T1 sequence (P51955 1-445): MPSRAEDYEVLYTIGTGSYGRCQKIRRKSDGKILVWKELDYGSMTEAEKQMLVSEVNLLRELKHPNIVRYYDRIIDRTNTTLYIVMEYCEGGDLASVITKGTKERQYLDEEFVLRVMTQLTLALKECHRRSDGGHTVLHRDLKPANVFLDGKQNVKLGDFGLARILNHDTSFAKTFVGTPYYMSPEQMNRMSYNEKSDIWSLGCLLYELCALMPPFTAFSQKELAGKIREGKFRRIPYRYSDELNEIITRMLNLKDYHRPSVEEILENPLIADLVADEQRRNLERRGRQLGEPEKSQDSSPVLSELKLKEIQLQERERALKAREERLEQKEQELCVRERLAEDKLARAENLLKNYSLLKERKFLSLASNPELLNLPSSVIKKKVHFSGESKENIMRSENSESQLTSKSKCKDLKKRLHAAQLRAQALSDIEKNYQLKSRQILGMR
# [8] = biological target: T2, panel of 255 wild-type kinases (Homo sapiens, UniProt Q08881); conditions: kinase ITK, 1 µmol/L single concentration, cited from earlier work
# T2 sequence (Q08881 1-620): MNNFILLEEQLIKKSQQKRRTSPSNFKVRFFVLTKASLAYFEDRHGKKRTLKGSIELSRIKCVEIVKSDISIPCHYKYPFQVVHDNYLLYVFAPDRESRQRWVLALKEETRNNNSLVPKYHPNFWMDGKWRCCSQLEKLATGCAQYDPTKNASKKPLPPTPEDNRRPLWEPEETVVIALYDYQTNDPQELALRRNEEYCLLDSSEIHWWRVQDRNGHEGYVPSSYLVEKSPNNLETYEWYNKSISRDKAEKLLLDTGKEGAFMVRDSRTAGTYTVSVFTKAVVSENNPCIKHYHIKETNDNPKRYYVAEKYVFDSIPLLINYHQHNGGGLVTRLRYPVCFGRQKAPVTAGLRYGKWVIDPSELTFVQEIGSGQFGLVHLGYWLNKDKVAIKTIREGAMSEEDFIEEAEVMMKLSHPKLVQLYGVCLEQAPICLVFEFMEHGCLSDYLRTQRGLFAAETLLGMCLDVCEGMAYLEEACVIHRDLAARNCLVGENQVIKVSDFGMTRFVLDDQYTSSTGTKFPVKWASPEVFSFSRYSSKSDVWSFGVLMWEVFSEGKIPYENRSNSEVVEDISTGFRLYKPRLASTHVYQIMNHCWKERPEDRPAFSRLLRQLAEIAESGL
# [9] = biological target: panel of 255 wild-type kinases (Homo sapiens, UniProt P49840); conditions: cited from earlier work
# [10] = biological target: panel of 255 wild-type kinases (Homo sapiens, UniProt Q9P1W9); conditions: kinase PIM2, 1 µmol/L single concentration, cited from earlier work
# [11] = biological target: panel of 255 wild-type kinases (Homo sapiens, UniProt P04626); conditions: cited from earlier work
# [12] = biological target: T3, panel of 255 wild-type kinases (Homo sapiens, UniProt Q13188); conditions: MST2, 1 µmol/L single concentration, cited from earlier work
# T3 sequence (Q13188 1-491): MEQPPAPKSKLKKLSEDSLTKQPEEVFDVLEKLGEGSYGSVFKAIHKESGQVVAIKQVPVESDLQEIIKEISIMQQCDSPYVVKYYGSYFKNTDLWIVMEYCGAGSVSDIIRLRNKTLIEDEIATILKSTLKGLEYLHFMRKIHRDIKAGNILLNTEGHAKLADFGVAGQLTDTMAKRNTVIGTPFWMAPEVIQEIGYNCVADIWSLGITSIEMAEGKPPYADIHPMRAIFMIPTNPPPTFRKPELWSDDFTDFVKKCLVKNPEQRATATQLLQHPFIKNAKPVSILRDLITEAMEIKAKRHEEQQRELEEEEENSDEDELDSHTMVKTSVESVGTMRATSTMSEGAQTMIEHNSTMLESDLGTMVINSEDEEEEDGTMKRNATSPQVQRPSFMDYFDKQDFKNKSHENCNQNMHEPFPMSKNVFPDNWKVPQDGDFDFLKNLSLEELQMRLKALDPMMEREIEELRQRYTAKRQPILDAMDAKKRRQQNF
# [13] = kinase HPK1, 1 µmol/L single concentration
# [14] = ref DOI: 10.1371/journal.pone.0092146
# [15] = kinase GSK3α, 1 µmol/L single concentration, ref DOI: 10.1371/journal.pone.0092146
# [16] = kinase HER2, 1 µmol/L single concentration, ref DOI: 10.1371/journal.pone.0092146
# [17] = ref DOI: 10.1158/1535-7163.MCT-18-0877
# [18] = kinase GSK3α, 1 µmol/L single concentration, ref DOI: 10.1158/1535-7163.MCT-18-0877
# [19] = kinase HER2, 1 µmol/L single concentration, ref DOI: 10.1158/1535-7163.MCT-18-0877
structure (smiles),measurement,setting,value
Cn1cnc2c(F)c(Nc3ccc(Br)cc3Cl)c(C(=O)NOCCO)cc21 [selumetinib],inhibition at 1 µM,[1]; [13],9.49%
CCCS(=O)(=O)Nc1ccc(F)c(C(=O)c2c[nH]c3ncc(-c4ccc(Cl)cc4)cc23)c1F [vemurafenib],"%-inhibition at 1 µmol/L, PKACγ",[2]; [14],-3%
same,"%-inhibition at 1 µmol/L, TYK2",[3]; [14],6%
same,"%-inhibition at 1 µmol/L, PYK2",[4]; [14],0.921%
same,"%-inhibition at 1 µmol/L, HCK",[5]; [14],30%
same,%-inhibition BTK,[6]; [14],2%
same,"%-inhibition, NEK2",[7]; [14],-1%
same,"%-inhibition at 1 µmol/L, ITK",[8]; [14],3%
same,"%-inhibition at 1 µmol/L, GSK3α",[9]; [15],25%
same,"%-inhibition at 1 µmol/L, PIM2",[10]; [14],-2%
same,"%-inhibition at 1 µmol/L, HER2",[11]; [16],2%
same,"%-inhibition, MST2",[12]; [14],24%
COc1ccc(CN2C3CC2CN(c2ccc(-c4cc(OCC(C)(C)O)cn5ncc(C#N)c45)cn2)C3)cn1 [selpercatinib],inhibition at 1 µM,[1]; [13],8.44%
O=C(Nc1cnn2ccc(N3CCC[C@@H]3c3cc(F)ccc3F)nc12)N1CC[C@H](O)C1 [larotrectinib],inhibition at 1 µM,[1]; [13],1%
CCc1cc2c(cc1N1CCC(N3CCOCC3)CC1)C(C)(C)c1[nH]c3cc(C#N)ccc3c1C2=O [alectinib],"%-inhibition at 1 µmol/L, PKACγ",[2]; [17],3%
same,"%-inhibition at 1 µmol/L, TYK2",[3]; [17],14%
same,"%-inhibition at 1 µmol/L, PYK2",[4]; [17],47%
same,"%-inhibition at 1 µmol/L, HCK",[5]; [17],43%
same,%-inhibition BTK,[6]; [17],4.39%
same,"%-inhibition, NEK2",[7]; [17],3.37%
same,"%-inhibition at 1 µmol/L, GSK3α",[9]; [18],4.36%
same,"%-inhibition at 1 µmol/L, PIM2",[10]; [17],2.36%
same,"%-inhibition at 1 µmol/L, HER2",[11]; [19],-1.77%
same,"%-inhibition, MST2",[12]; [17],-1.42%
CCN1C(=O)N(c2c(F)c(OC)cc(OC)c2F)Cc2cnc3[nH]c(CN4CCOCC4)cc3c21 [pemigatinib],inhibition at 1 µM,[1]; [13],21%
CNC(=O)c1ccc(-c2cnc3ncc(Cc4ccc5ncccc5c4)n3n2)cc1F [capmatinib],inhibition at 1 µM,[1],0.392%
CC(C)(C)c1nc(-c2cccc(NS(=O)(=O)c3c(F)cccc3F)c2F)c(-c2ccnc(N)n2)s1 [dabrafenib],"%-inhibition at 1 µmol/L, TYK2",[3]; [14],10%
same,"%-inhibition at 1 µmol/L, PYK2",[4]; [14],56%
same,"%-inhibition at 1 µmol/L, HCK",[5]; [14],57%
same,%-inhibition BTK,[6]; [14],60%
same,"%-inhibition at 1 µmol/L, ITK",[8]; [14],49%
same,"%-inhibition at 1 µmol/L, PIM2",[10]; [14],0.238%
same,"%-inhibition at 1 µmol/L, HER2",[11]; [16],50%
CO[C@]1(C(=O)N[C@@H](C)c2ccc(-n3cc(F)cn3)nc2)CC[C@H](c2nc(C)cc(Nc3cc(C)[nH]n3)n2)CC1 [pralsetinib],inhibition at 1 µM,[1]; [13],50%
Cc1cc(Nc2ncnc3ccc(NC4=NC(C)(C)CO4)cc23)ccc1Oc1ccn2ncnc2c1 [tucatinib],inhibition at 1 µM,[1]; [13],4%
C=CC(=O)N1CCC([C@@H]2CCNc3c(C(N)=O)c(-c4ccc(Oc5ccccc5)cc4)nn32)CC1 [zanubrutinib],inhibition at 1 µM,[1]; [13],1.75%
CCN1CCN(c2ccc(Nc3cc(N(C)C(=O)Nc4c(Cl)c(OC)cc(OC)c4Cl)ncn3)cc2)CC1 [infigratinib],inhibition at 1 µM,[1]; [13],65%
C=CC(=O)Nc1cc(Nc2nccc(-c3cn(C)c4ccccc34)n2)c(OC)cc1N(C)CCN(C)C [osimertinib],"%-inhibition at 1 µmol/L, PKACγ",[2]; [17],7.4%
same,"%-inhibition at 1 µmol/L, TYK2",[3]; [17],9%
same,"%-inhibition at 1 µmol/L, PYK2",[4]; [17],62%
same,"%-inhibition at 1 µmol/L, HCK",[5]; [17],0.0489%
same,%-inhibition BTK,[6]; [17],84%
same,"%-inhibition, NEK2",[7]; [17],8%
same,"%-inhibition at 1 µmol/L, ITK",[8]; [17],62%
same,"%-inhibition at 1 µmol/L, GSK3α",[9]; [18],15%
same,"%-inhibition at 1 µmol/L, PIM2",[10]; [17],-5.45%
same,"%-inhibition at 1 µmol/L, HER2",[11]; [19],100%
CO[C@@H]1[C@H](N(C)C(=O)c2ccccc2)C[C@H]2O[C@]1(C)n1c3ccccc3c3c4c(c5c6ccccc6n2c5c31)C(=O)NC4 [midostaurin],"%-inhibition at 1 µmol/L, PKACγ",[2]; [17],81%
same,"%-inhibition at 1 µmol/L, PYK2",[4]; [17],72%
same,%-inhibition BTK,[6]; [17],59%
same,"%-inhibition, NEK2",[7]; [17],0.207%
same,"%-inhibition at 1 µmol/L, ITK",[8]; [17],73%
same,"%-inhibition at 1 µmol/L, GSK3α",[9],87%
same,"%-inhibition at 1 µmol/L, PIM2",[10]; [17],-9%
same,"%-inhibition at 1 µmol/L, HER2",[11]; [19],63%
same,"%-inhibition, MST2",[12]; [17],98%
Cn1cc(-c2cc3c(N4CCN(c5ncc([C@@](C)(N)c6ccc(F)cc6)cn5)CC4)ncnn3c2)cn1 [avapritinib],inhibition at 1 µM,[1]; [13],15%
C=CC(=O)N1CCC[C@@H](n2nc(-c3ccc(Oc4ccccc4)cc3)c3c(N)ncnc32)C1 [ibrutinib],"%-inhibition at 1 µmol/L, PKACγ",[2]; [17],5%
same,"%-inhibition at 1 µmol/L, TYK2",[3]; [17],7%
same,"%-inhibition at 1 µmol/L, PYK2",[4]; [17],3.37%
same,"%-inhibition at 1 µmol/L, HCK",[5]; [17],100%
same,"%-inhibition, NEK2",[7]; [17],6.64%
same,"%-inhibition at 1 µmol/L, ITK",[8]; [17],93%
same,"%-inhibition at 1 µmol/L, GSK3α",[9]; [18],2.24%
same,"%-inhibition at 1 µmol/L, PIM2",[10]; [17],-5%
same,"%-inhibition at 1 µmol/L, HER2",[11]; [19],100%
same,"%-inhibition, MST2",[12]; [17],17%
C[C@@H](Oc1cc(-c2cnn(C3CCNCC3)c2)cnc1N)c1c(Cl)ccc(F)c1Cl [crizotinib],"%-inhibition at 1 µmol/L, PKACγ",[2]; [14],-6.52%
same,"%-inhibition at 1 µmol/L, TYK2",[3]; [14],21%
same,"%-inhibition at 1 µmol/L, HCK",[5]; [14],26%
same,"%-inhibition, NEK2",[7]; [14],-2.69%
same,"%-inhibition at 1 µmol/L, ITK",[8]; [14],63%
same,"%-inhibition at 1 µmol/L, GSK3α",[9]; [15],-2.56%
same,"%-inhibition at 1 µmol/L, PIM2",[10]; [14],-5.28%
same,"%-inhibition at 1 µmol/L, HER2",[11],-0.714%
same,"%-inhibition, MST2",[12]; [14],13%
